Patent US8574645B2, “Antimicrobial composition” (DSM IP Assets B.V., priority 2004, dated 2013)
Read-outs that look alike come from different tables or passages of the source.

Experiments:
[1] = tested on: Listeria innocua LM35; assay: Antibacterial activity in inoculated cottage cheese, viable cell enumeration; format: cell-based; details: for Log CFU/g of L. innocua: nisin 0.00 ppm, cottage cheese, 4-7° C.
Description: This example describes the antibacterial activity of nisin (1.25 and 2.5 ppm) in cottage cheese, in presence of low natamycin concentration. Cottage cheese was prepared as described above. After adding the dressing to the dry curd, the cottage cheese was inoculated with yeasts, fungal cells and cells of Listeria innocua LM35. Following the artificial contamination, the cottage cheese was added with two nisin concentrations 1.25 and 2.5 ppm and/or in combination with natamycin at the concentration 2.5 or 5 ppm. The antibacterial activity of nisin against L. innocua was evaluated after 3 and 6 weeks of incubation at 4° C. through the enumeration of the viable cells in the inoculated samples, in presence or not of preservatives. The number of viable bacterial cells was also determined in a negative sample, non inoculated cottage cheese without preservatives and in a positive control, sample artificially contaminated with bacteria.

[2] = tested on: Penicillium roqueforti CBS 304.97; assay: Antifungal activity in inoculated cottage cheese, viable cell enumeration; format: cell-based; details: for Log spores/g of P. roqueforti: nisin 0.00 ppm, cottage cheese, 4-7° C.
Description: (§1) This example describes the antifungal activity of low natamycin concentration (2.5 and 5 ppm) in cottage cheese, in presence of nisin. Cottage cheese was prepared as described above. After adding the dressing to the dry curd, the cottage cheese was inoculated with yeasts and fungal cells, Kluyveromyces marxianus CBS 1557 and Penicillium roqueforti CBS 304.97, respectively. Following the artificial contamination, natamycin and/or nisin was added to the cottage cheese at two different concentrations, 2.5 and 5 ppm for natamycin and 1.25 and 2.50 ppm for nisin. The antifungal activity of natamycin against the yeast and the mould cells was evaluated after 3 and 6 weeks of incubation at 4° C. through the enumeration of the viable cells in the inoculated samples, in presence or not of preservatives. The number of viable yeast of fungal cells was also determined in a negative sample, non inoculated cottage cheese without preservatives and in a positive control, sample artificially contaminated with yeast and fungal cells without preservative.

[3] = tested on: Kluyveromyces marxianus CBS 1557; assay: as above; format: cell-based; details: for Log CFU/g of K. marxianus: nisin 0.00 ppm, cottage cheese, 4-7° C.
Description: as §1

[4] = tested on: yeast and mould; assay: Outgrowth of yeast and mould in or on food products; format: cell-based
[5] = tested on: most food born fungi; details: cited from earlier work
[6] = format: physicochemical
Description: Cottage cheese was prepared following the standard procedure for cottage cheese making. The dry curd was obtained by addition of a starter culture to pasteurized skim milk. After acidification till pH 4.4 the curd was pasteurized and rinsed with water. The dry curd was mixed with the dressing at the ratio 66% curd and […]. Before mixing the curd and the dressing, the preservatives Delvocid® and Delvoplus® were added to the dressing. The preservative concentrations in the end products were 2.5 and 5 ppm of natamycin (5 and 10 ppm of Delvocid®) and 1.25 and 2.5 ppm of nisin (50 and 100 ppm of Delvoplus®). The moisture content of cottage cheese (dry curd mixed with the dressing) was 82%.
The procedure described in the International IDF (International Dairy Federation) Standard 140A:1992 for cheese was used to determine the concentration of natamycin in the cottage cheese samples. In total 12 different samples were analysed in triplicate. The remaining percentage of natamycin was calculated using the average of the triplicate. […] After 6 weeks of storage at refrigerated temperature, the average stability of natamycin in cottage cheese was of 92%.

[7] = tested on: Gram positive bacteria; assay: Outgrowth of Gram positive bacteria at the surface of food products; format: cell-based; details: applied at the surface of product, 0.0001 and 1 ppm nisin
[8] = natamycin at 2.5 or 5 ppm in cottage cheese, up to 6 weeks

Compound: C[C@@H]1C/C=C/C=C/C=C/C=C/[C@H](O[C@@H]2O[C@H](C)[C@@H](O)[C@H](N)[C@@H]2O)C[C@@H]2O[C@](O)(C[C@@H](O)C[C@H]3O[C@@H]3/C=C/C(=O)O1)C[C@H](O)[C@H]2C(=O)O [natamycin]
- Log CFU/g of L. innocua ([1]; natamycin 2.50 ppm, 0 week): 1.90 Log CFU/g
- Log CFU/g of L. innocua ([1]; natamycin 2.50 ppm, 3 weeks): 2.50 Log CFU/g
- Log CFU/g of L. innocua ([1]; natamycin 2.50 ppm, 6 weeks): 4.50 Log CFU/g
- Log CFU/g of L. innocua ([1]; natamycin 5.00 ppm, 0 week): 1.90 Log CFU/g
- Log CFU/g of L. innocua ([1]; natamycin 5.00 ppm, 3 weeks): 1.90 Log CFU/g
- Log CFU/g of L. innocua ([1]; natamycin 5.00 ppm, 6 weeks): 4.70 Log CFU/g
- Log spores/g of P. roqueforti ([2]; natamycin 2.50 ppm, 0 week): 1.70 Log spores/g
- Log spores/g of P. roqueforti ([2]; natamycin 2.50 ppm, 3 weeks): 1.70 Log spores/g
- Log spores/g of P. roqueforti ([2]; natamycin 2.50 ppm, 6 weeks): <1.00 Log spores/g
- Log spores/g of P. roqueforti ([2]; natamycin 5.00 ppm, 0 week): 1.60 Log spores/g
- Log spores/g of P. roqueforti ([2]; natamycin 5.00 ppm, 3 weeks): <1.00 Log spores/g
- Log spores/g of P. roqueforti ([2]; natamycin 5.00 ppm, 6 weeks): <1.00 Log spores/g
- Prevention of growth of P. roqueforti [2, 8]: effective in preventing the growth
- Log CFU/g of K. marxianus ([3]; natamycin 2.50 ppm, 0 week): 1.70 Log CFU/g
- Log CFU/g of K. marxianus ([3]; natamycin 2.50 ppm, 3 weeks): 1.70 Log CFU/g
- Log CFU/g of K. marxianus ([3]; natamycin 2.50 ppm, 6 weeks): <1.00 Log CFU/g
- Log CFU/g of K. marxianus ([3]; natamycin 5.00 ppm, 0 week): 1.30 Log CFU/g
- Log CFU/g of K. marxianus ([3]; natamycin 5.00 ppm, 3 weeks): <1.00 Log CFU/g
- Log CFU/g of K. marxianus ([3]; natamycin 5.00 ppm, 6 weeks): <1.00 Log CFU/g
- Prevention of growth of K. marxianus [3, 8]: effective in preventing the growth
- Effectiveness against yeast and mould ([4]; applied at the surface of product, 0.01 to 10 ppm natamycin): extremely effective
- Effectiveness against yeast and mould ([4]; introduced into foodstuffs at concentrations whereby almost no crystal or solid form is present, ranging from 120 ppm based on water content): extremely effective
- MIC (Minimal Inhibition Concentration) [5]: less than 10 ppm
- Stability of dissolved natamycin in water-containing product [6]: stable
- Stability of natamycin in cottage cheese [6]: stable
- Remaining percentage of natamycin ([6]; 0 h): 100%
- Remaining percentage of natamycin, Average ([6]; 0 h): 100%
- Remaining percentage of natamycin, Average ([6]; 504 h): 98%
- Remaining percentage of natamycin, Average ([6]; 1008 h): 92%

Compound: nisin
- Inhibition of growth of L. innocua ([1]; nisin 1.25 and 2.5 ppm in cottage cheese, in presence or not of natamycin): inhibited the growth
- Effectiveness against Gram positive bacteria [7]: extremely effective
